# Literature values in US5604233A, “Lactone stable formulation of 7-ethyl camptothecin and methods for uses thereof” (priority 1994, dated 1997).
# Legend:
# topoisomerase I = conditions: cited from earlier work
# topoisomerase II = conditions: cited from earlier work
# L1210 cells = conditions: cited from earlier work
# L1210 leukemia = conditions: 10-100 mg/kg intraperitoneally; cited from earlier work
# [1] = Phase I, early 1970's; cited from earlier work
# [2] = pH levels below 7.0; cited from earlier work
# [3] = cited from earlier work
# [4] = test system: Topoisomerase I purified from human colon carcinoma cells or calf thymus; conditions: cited from earlier work
smiles,measurement,setting,value
CC[C@@]1(O)C(=O)OCc2c1cc1n(c2=O)Cc2cc3ccccc3nc2-1 [camptothecin],reversibility of cleavable complex stabilization,topoisomerase I,readily reversible
same,effect on topoisomerase II,topoisomerase II,no effect
same,protein-free breaks,L1210 cells,increase in unexplained protein-free breaks
same,T/C (treated/control) ratios relative to ECPT and HECPT,L1210 leukemia,superior
same,results relative to CPT-11 under the same conditions,L1210 leukemia,inferior
same,antitumor activity in Phase I trials,[1],antitumor activity
same,toxicity in Phase I trials,[1],unpredictable myelosuppression and hemorrhagic cystitis
same,form predominating,[2],closed form
same,solubility in water,[3],poorly soluble in water
same,inhibition of purified topoisomerase I,[4],inhibited
